Test results as given in article PMC6737077, “DFMD: Fast and Effective DelPhiForce Steered Molecular Dynamics Approach to Model Ligand Approach Toward a Receptor: Application to Spermine Synthase Enzyme” (Frontiers in Molecular Biosciences, 2019).
Where a chain is given by its changes, count along the chain named.

What was measured:
Assay in all cases: intrinsic protein fluorescence titration (ex […] nm, em […]-345 nm)
Type in all cases: binding
[1] = target: T1, human spermine synthase (SpmSyn) (Homo sapiens, UniProt P52788, D201A)
T1 construct: gene SMS; wild-type human SpmSyn expression construct of Wu et al. 2008; expressed in E. coli Rosetta 2, purified; homo-dimer
T1 sequence (P52788 2-366 D201A): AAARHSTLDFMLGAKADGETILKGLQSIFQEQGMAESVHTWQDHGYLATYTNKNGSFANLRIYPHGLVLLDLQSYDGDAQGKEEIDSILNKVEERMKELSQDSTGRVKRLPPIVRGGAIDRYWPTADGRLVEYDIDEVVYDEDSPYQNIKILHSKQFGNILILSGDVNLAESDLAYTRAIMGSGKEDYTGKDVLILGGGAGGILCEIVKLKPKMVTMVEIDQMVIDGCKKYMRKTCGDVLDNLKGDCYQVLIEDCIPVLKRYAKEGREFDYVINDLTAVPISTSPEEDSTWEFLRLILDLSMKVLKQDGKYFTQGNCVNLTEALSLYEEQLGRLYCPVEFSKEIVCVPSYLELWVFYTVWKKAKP

[2] = target: T2, human spermine synthase (SpmSyn) (Homo sapiens, UniProt P52788, G56S)
T2 construct: gene SMS; wild-type human SpmSyn expression construct of Wu et al. 2008; expressed in E. coli Rosetta 2, purified; homo-dimer
T2 sequence (P52788 2-366 G56S): T1 sequence (P52788 2-366 D201A) with G55S, A200D

[3] = target: T3, human spermine synthase (SpmSyn) (Homo sapiens, UniProt P52788)
T3 construct: gene SMS; wild-type human SpmSyn expression construct of Wu et al. 2008; expressed in E. coli Rosetta 2, purified; homo-dimer
T3 sequence (P52788 2-366): T1 sequence (P52788 2-366 D201A) with A200D

Kd [1]: 1020 ± 69 µM | Kd [2]: 410 ± 57 µM | Kd [3]: 272 ± 24 µM
Compound: C[S+](CC[C@H](N)C(=O)O)C[C@H]1O[C@@H](n2cnc3c(N)ncnc32)[C@H](O)[C@@H]1O (stereo partly drawn) [AdoMet]
